From patent publication US20100160408A1, “VILDAGLIPTIN FOR TREATING GENERAL PERIPHERAL NEUROPATHIES” (priority 2004, published 2010)

How the values were obtained:
aged rats [1] = assay: Passive avoidance learning test in aged rats; format: in vivo; settings: repeated oral administration, vildagliptin 3 mg/kg and/or donepezil 0.3 mg/kg, test started on day 14 of treatment, versus control group
From the text: (§1) The ameliorative effect of vildagliptin or the combined use of vildagliptin with the compounds having cholinesterase inhibitory activity on learning deficits is investigated in aged rats.
(§2) Methods Male (3 to 27 months old) rats of transgenic strain are used. The aged rats are divided into the following four groups (the active ingredient dosage can be adapted by the person skilled in the art).
(§3) 1) Control group: Repeated administration of placebo pill.
(§4) 2) Vildagliptin group: Repeated oral administration of vildagliptin 3 mg/kg.
(§5) Passive avoidance learning test is started on day 14 of treatment, and Morris water maze learning test on day 20 of treatment.
(§6) On each day of experiment, vildagliptin arid/or a cholinesterase inhibitor are administered 30 minutes and 1 hour, respectively, before initiation of the trial.
Passive Avoidance Learning: The passive avoidance learning test is performed using a chamber consisting of light and dark compartments. […] After a mouse moves to the dark compartment, the mouse is kept there for about 10 seconds with the door closed. One to two hours after the habituation trial, acquisition trial is performed. […]
In each trial, the latency from opening of the slide door until the animal moved to the dark compartment (step-through latency) is measured.

aged rats [2] = assay: Morris water maze learning test in aged rats; format: in vivo; settings: repeated oral administration, vildagliptin 3 mg/kg and/or donepezil 0.3 mg/kg, test started on day 20 of treatment, versus control group
From the text: as §1, §2, §3, §4, §5, §6
Morris Water Maze Learning Same animals used in the passive avoidance test are subjected for the water maze task. However, some rats can not swim well in the water tank, thus they are excluded in the water maze task.
In pretraining which is performed for swimming training and motivation for escaping from water, four trials are performed using a water bath, 80 cm in diameter, in a condition that the platform is visible. […]

SMILES: N#C[C@@H]1CCCN1C(=O)CNC12CC3CC(CC(O)(C3)C1)C2 [vildagliptin, (S)-1-[(3-hydroxy-1-adamantyl)amino]acetyl-2-cyano-pyrrolidine]
- learning deficit in passive avoidance learning (step-through latency / avoidance time) (aged rats [1]): significant improvement of the learning deficit
- water maze learning deficit (latency to find platform submerged in the water) (aged rats [2]): significant improvement in water maze learning deficit
